From patent US10906977B2, “Enhancing the therapeutic activity of immune checkpoint inhibitor” (Maine Medical Center Research Institute, priority 2016, dated 2021)

How the values were obtained:
[1] = tested on: chick chorioallantoic membrane (CAM); assay: Chick CAM angiogenesis induced by soluble RGD collagen peptides; format: in vivo
Method: (§1) The chick chorioallantoic membrane (CAM) assays were carried out with some modifications (19). For all experiments CAMs of 10-day-old chick embryos obtained from Charles River (North Franklin, Conn.) were separated from the shell membrane. Filter discs either non-treated (inflammation assays) pretreated (angiogenesis assays) with cortisone acetate (3.0 mg/ml) containing RPMI only or FGF-2 (40 ng). CAMs were either non-treated or treated topically with Mab XL313, XL166 or a non-specific control antibody (10 μg/embryo every 24 h for three consecutive treatments). […] At the end of the incubation period the embryos were sacrificed and the CAM tissues were analyzed. Angiogenesis was quantified by counting the number of angiogenic branching blood vessels within the area of the filter disc. The angiogenic index was determined by subtracting the mean number of blood vessel branch points from untreated CAMs from each experimental condition. Eight to twelve embryos were used per condition and experiments were repeated at least three times.

[2] = tested on: chick chorioallantoic membrane (CAM); assay: Chick CAM inflammation induced by soluble RGD collagen peptides; format: in vivo; conditions: FIG. 5D
Method: as §1

Fak = Fak phosphorylation in endothelial cells attached to collagen peptides; format: cell-based, human; conditions: serum free conditions
Method: Whole cell and CAM tissue lysates were collected in RIPA buffer supplemented with 1× protease inhibitor and 1× phosphatase inhibitor and were run on polyacrylamide gels using denaturing conditions. Prior to loading the gels, 6× sample buffer was added to each of the lysates (final concentration 1×) and boiled for five minutes. Twenty to 50 μg of total protein were loaded into each lane. For detection of proteins larger than 50 kD, 10% gels were used; for proteins smaller than 50 kD 15% gels were used. Gels were run at 60 volts (v) until the dye front passed through the stacking gel, and then the voltage was increased to 100V for the remainder of the separation. Precision Plus protein standards (Bio-Rad) were used to visualize migration. Protein was transferred to nitrocellulose membranes using a wet tank system and blocked for 1 h using 10% non-fat dried milk in tris-buffered saline with 0.01% Tween-20 (TBS-T). […] Western blot bands were quantified using Image J software based on pixel intensity.

HRMVEC = assay: Endothelial cell proliferation with soluble RGD peptides; format: cell-based, human; conditions: 100 ng/ml, 24 hours; FIG. 8D
Method: (§2) HUVECs (WT, shYAP1 or control transfected) or HRMVECs were plated at 2,000 cells per well with complete EGM-2 media containing 2.0% FBS in the absence or presence of P-1, P-2 or P-C (100 ng/ml) and allowed to grow for 24 hours. Cell growth was monitored using a BrdU or MMT assay kits according to manufacturer's instructions. All assays were completed at least three times in triplicate wells.

HUVEC = assay: as above; format: cell-based, human; conditions: 100 ng/ml, 24 hours; FIG. 8C
Method: as §2

[3] = tested on: endothelial cells transduced with YAP specific or non-specific shRNAs; assay: Growth of shRNA transduced endothelial cells with soluble RGD peptides; format: cell-based, human; conditions: non-specific shRNA; FIG. 8G
Method: as §2
Raw cells were transfected with 1 μg of HuSH shRNA plasmids for collagen type I, alpha 2 using Amaxa cell line nucleofector kit V (program #T024). Constructs expressing 21-nucleotide short hairpin RNAs (shRNA) targeting human YAP (shYAP) or non-targeting control (shNT, Sigma-Aldrich, SHC002) were used. Humantargeting shYAP1 lentiviral shRNA was obtained from the Thermo Scientific RNAi consortium (TRCN0000107625). Constructs were packaged into lentivirus, pseudotyped with the vesicular stomatitis virus glycoprotein. Transduction was performed by incubating cells with lentivirus, and stably transduced cells were subsequently used for studies. All cell lines were verified by morphology and mouse and human YAP-specific PCR. […] Endothelial cells were certified mycoplasma-negative by PCR (Lonza), and primary cell cultures were used within the indicated passage numbers. Cells were transduced and selected using puromycin.

[4] = tested on: chick chorioallantoic membrane (CAM); assay: Chick CAM inflammation assay, FGF-2 induced, no cortisone acetate; format: in vivo; conditions: FGF-2 induced; vs no treatment or control antibody; FIG. 3E
Method: The chick chorioallantoic membrane (CAM) assays were carried out with some modifications (19). For all experiments CAMs of 10-day-old chick embryos obtained from Charles River (North Franklin, Conn.) were separated from the shell membrane. Filter discs either non-treated (inflammation assays) pretreated (angiogenesis assays) with cortisone acetate (3.0 mg/ml) containing RPMI only or FGF-2 (40 ng). CAMs were either non-treated or treated topically with Mab XL313, XL166 or a non-specific control antibody (10 μg/embryo every 24 h for three consecutive treatments). For peptide induction experiments, CAMs were stimulated with 100 ng/ml of the RGD peptides (P-1, P-2, P-C) in the presence or absence of the P38MAPK inhibitor, SB202190 (10 μM). At the end of the incubation period the embryos were sacrificed and the CAM tissues were analyzed. Angiogenesis was quantified by counting the number of angiogenic branching blood vessels within the area of the filter disc. The angiogenic index was determined by subtracting the mean number of blood vessel branch points from untreated CAMs from each experimental condition. Eight to twelve embryos were used per condition and experiments were repeated at least three times.
CAMs examined for accumulation of granulation tissue were harvested, fixed in 4% PFA and paraffin embedded and sectioned (4 μm) and stained with Giemsa. CAM tissues analyzed via immunofluorescence were harvested, embedded with OCT, snap frozen and sectioned ([…]). Frozen sections were fixed in 50% methanol/50% acetone, air dried and blocked with 2.5% BSA for 1 h at 37° C. For expression of the XL313 and XL166 epitopes as well as monocyte/macrophages, FGF-2 stimulated CAM tissues were stained with Mabs XL313, XL166 (50 μg/ml) or KUL1 (1:250) and then incubated with Alexa-488 labeled secondary antibodies (1:2000 dilution). […] Using a similar strategy, sections of RGD peptide-treated CAM tissues were analyzed for phosphorylated-P38MAPK in angiogenic vessels by co-incubation of anti-phospho-P38MAPK (1:50) and anti-vWf (1:500) antibodies. […]

[5] = tested on: human umbilical vein endothelial cell (HUVEC); assay: Cell adhesion to immobilized collagen RGD peptides; format: cell-based; conditions: peptide immobilized 100 μg/ml; FIG. 1A
Method: RGD peptides (P-1, P-2, P-3, P-4, P-5, and P-C) were immobilized (100 μg/ml) to wells. HUVEC, HMVEC, HRMVEC, and HDF cells were suspended in adhesion buffer (RPMI containing 1 mM MgCl2, 0.2 mM MnCl2 and 0.5% BSA) and 1×10^5 cells were seeded into the wells in the presence or absence of P4C10, LM609, P1F6 or control antibodies (100 μg/ml). Cells were allowed to attach for 25 min at 37° C. Media containing non-attached cells was aspirated and attached cells were washed with PBS and stained with crystal violet. Cell adhesion was quantified by measuring the optical density of eluted dye. Adhesion assays were completed at least three times with triplicate wells.

[6] = molecular target: Denatured collagen (collagen type-I boiled 15 minutes) (UniProt P02452); assay: cell-based or functional assay
[7] = molecular target: Denatured collagen (collagen type-I boiled 15 minutes) (UniProt P02452); assay: integrin blocking ELISA; denatured collagen wells pre-treated with anti-HU177 (0.1 µg/ml); competitor α2β1 (2.0 µg/ml)
[8] = molecular target: Denatured collagen (collagen type-I boiled 15 minutes) (UniProt P02452); assay: integrin blocking ELISA; denatured collagen wells pre-treated with anti-HU177 (0.1 µg/ml); competitor α10β1 (2.0 µg/ml)
P38MAPK = assay: Phosphorylated P38MAPK in HUVECs attached to collagen peptides (Western blot); format: cell-based, human; conditions: Src inhibitor PP2 10 μM; FIG. 7F
Method: (§3) Endothelial cells (HUVECs or HRMVECs) were incubated in serum free media with 1 mM MgCl2, 0.2 mM MnCl2 in the presence of a Src inhibitor, PP2, (10 μM) a P38MAPK inhibitor, SB202190 (10 μM) or vehicle only (DMSO) for 10 min at 37° C. Treated cells were then seeded on to immobilized P-1 and P-2 and lysates were collected at 15 min.
(§4) Whole cell and CAM tissue lysates were collected in RIPA buffer supplemented with 1× protease inhibitor and 1× phosphatase inhibitor and were run on polyacrylamide gels using denaturing conditions. Prior to loading the gels, 6× sample buffer was added to each of the lysates (final concentration 1×) and boiled for five minutes. Twenty to 50 μg of total protein were loaded into each lane. […] Gels were run at 60 volts (v) until the dye front passed through the stacking gel, and then the voltage was increased to 100V for the remainder of the separation. Precision Plus protein standards (Bio-Rad) were used to visualize migration. Protein was transferred to nitrocellulose membranes using a wet tank system and blocked for 1 h using 10% non-fat dried milk in tris-buffered saline with 0.01% Tween-20 (TBS-T). […] Membranes were washed 3 times in TBS-T for five minutes. Blots were then incubated with HRP conjugated secondary antibodies (1:15000) in 1% non-fat milk in TBS-T for 1 h. […] Western blot bands were quantified using Image J software based on pixel intensity.

β3-integrin = molecular target: T1, β3-integrin (Homo sapiens, UniProt P05106+P06756); assay: β3-integrin phosphorylation in endothelial cells attached to collagen peptides (Western blot); format: cell-based; conditions: Src inhibitor PP2 10 μM; FIG. 7E
T1 construct: endogenous in cells; host or cells: HUVEC
Method: as §3, §4

YAP = assay: Nuclear YAP in P-2 stimulated endothelial cells with Src or P38MAPK inhibitor; format: cell-based, human; conditions: inhibitor 10 μM; as compared to control; FIG. 8E, 8F
Method: as §3, §4

[9] = molecular target: integrin αvβ3 on cells (HUVEC endothelial cells, M21 melanoma cells, human T-cells) (human, UniProt P06756 31-1048; P05106 27-788); assay: cell-based or functional assay
Sequence of integrin αvβ3 on cells (HUVEC endothelial cells, M21 melanoma cells, human T-cells) (P06756 31-1048, chain 1 of 2): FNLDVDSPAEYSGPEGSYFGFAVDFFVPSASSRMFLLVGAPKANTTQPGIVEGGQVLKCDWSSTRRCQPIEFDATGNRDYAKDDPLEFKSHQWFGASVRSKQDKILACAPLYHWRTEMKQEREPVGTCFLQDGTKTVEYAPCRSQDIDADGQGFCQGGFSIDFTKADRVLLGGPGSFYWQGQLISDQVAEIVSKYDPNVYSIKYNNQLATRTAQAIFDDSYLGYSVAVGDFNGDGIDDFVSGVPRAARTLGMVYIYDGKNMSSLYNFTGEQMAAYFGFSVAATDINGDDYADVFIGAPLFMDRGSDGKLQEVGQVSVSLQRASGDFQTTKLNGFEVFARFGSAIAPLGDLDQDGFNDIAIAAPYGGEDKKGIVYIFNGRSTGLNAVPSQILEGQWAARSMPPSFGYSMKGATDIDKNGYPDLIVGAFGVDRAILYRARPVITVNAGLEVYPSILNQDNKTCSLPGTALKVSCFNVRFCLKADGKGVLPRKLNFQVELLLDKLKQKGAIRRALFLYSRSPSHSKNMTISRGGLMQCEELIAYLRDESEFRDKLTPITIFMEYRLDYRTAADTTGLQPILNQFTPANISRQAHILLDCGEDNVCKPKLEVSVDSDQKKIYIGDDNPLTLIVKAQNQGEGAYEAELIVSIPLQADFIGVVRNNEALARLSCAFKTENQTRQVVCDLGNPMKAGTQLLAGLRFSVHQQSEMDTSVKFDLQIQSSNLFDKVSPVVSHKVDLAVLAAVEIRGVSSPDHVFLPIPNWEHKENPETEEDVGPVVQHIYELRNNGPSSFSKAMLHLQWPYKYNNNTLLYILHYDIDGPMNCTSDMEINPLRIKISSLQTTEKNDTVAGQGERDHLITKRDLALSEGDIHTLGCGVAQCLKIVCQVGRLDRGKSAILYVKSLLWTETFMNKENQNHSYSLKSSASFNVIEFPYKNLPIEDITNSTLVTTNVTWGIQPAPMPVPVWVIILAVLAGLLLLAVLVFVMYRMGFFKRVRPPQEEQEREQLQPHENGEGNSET
Sequence of integrin αvβ3 on cells (HUVEC endothelial cells, M21 melanoma cells, human T-cells) (P05106 27-788, chain 2 of 2): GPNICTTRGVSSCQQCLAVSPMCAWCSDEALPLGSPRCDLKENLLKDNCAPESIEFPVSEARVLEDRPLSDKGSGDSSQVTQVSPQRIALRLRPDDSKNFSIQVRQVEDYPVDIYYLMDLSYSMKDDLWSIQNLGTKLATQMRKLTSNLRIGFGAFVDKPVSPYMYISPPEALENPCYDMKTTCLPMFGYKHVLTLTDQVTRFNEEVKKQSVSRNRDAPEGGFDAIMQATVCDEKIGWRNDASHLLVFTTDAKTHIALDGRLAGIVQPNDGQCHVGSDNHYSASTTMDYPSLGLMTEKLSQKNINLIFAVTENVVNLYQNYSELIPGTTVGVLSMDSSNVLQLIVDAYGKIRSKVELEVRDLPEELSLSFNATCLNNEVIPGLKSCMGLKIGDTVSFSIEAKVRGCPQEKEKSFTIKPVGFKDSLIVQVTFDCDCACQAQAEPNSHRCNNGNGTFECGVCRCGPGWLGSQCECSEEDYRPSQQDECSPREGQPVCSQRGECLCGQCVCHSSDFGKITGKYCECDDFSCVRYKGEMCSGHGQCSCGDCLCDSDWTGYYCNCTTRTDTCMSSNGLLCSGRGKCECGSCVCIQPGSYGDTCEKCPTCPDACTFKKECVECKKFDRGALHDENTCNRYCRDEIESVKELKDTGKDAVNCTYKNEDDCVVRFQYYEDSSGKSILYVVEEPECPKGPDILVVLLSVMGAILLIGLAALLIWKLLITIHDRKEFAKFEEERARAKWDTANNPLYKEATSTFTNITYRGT

T1 sequence (P05106 27-788): as the sequence (P05106 27-788, chain 2 of 2) above
T1 sequence (P06756 31-889 limits assumed): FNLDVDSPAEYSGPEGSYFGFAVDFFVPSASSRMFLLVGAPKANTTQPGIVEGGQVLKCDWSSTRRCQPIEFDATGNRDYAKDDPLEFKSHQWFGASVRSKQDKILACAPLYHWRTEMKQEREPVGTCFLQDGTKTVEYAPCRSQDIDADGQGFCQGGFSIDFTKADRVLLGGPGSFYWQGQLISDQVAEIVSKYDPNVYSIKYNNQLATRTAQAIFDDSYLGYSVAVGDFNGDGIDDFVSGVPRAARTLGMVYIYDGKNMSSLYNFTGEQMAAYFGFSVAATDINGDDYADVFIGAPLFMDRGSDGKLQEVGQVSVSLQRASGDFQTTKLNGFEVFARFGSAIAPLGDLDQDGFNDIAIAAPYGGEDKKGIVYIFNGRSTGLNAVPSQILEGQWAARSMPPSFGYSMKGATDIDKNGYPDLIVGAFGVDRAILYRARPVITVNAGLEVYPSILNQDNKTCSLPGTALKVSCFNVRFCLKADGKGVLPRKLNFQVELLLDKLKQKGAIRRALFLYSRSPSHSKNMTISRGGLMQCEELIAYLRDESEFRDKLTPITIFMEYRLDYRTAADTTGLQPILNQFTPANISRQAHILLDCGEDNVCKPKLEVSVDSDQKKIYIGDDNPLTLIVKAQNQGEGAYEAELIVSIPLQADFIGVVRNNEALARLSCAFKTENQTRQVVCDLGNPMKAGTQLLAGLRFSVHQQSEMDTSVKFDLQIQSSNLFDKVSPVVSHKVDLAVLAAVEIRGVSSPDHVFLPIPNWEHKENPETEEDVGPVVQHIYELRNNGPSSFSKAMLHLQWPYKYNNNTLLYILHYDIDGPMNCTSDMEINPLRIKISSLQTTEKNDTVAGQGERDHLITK
T1 sequence (P06756 891-1048 partner limits assumed): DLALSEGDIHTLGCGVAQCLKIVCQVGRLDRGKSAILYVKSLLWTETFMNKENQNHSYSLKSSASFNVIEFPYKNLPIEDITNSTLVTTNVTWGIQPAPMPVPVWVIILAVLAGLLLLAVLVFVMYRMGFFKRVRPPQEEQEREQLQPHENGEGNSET

“CKGDRGDAPGC [Mab P-1, RGDAPG containing collagen type-I peptide (…) with flanking cysteines]” was tested, and the “induction of CAM angiogenesis as compared to no treatment” value ([1]; soluble peptide, FIG. 5C) was “not”, the “CAM inflammation following stimulation with peptide” value [2] was “Minimal evidence of tissue inflammation” and the “Fak phosphorylation following ligation of peptide” value (Fak) was “Minimal Fak phosphorylation”. The “HRMVEC growth with soluble peptide” value (HRMVEC) was “minimal effect”, the “HUVEC growth with soluble peptide” value (HUVEC) was “minimal effect” and the “growth of control transduced endothelial cells with soluble peptide” value [3] was “not”.

`CC(=O)OCC(=O)[C@@]1(O)CC[C@H]2[C@@H]3CCC4=CC(=O)CC[C@]4(C)[C@H]3C(=O)C[C@@]21C` [cortisone acetate] was tested, and the “reduction of the percentage of CAMs exhibiting thickening / inflammation” value [4] was “greater than 80%”.

CRGPRGDQGPC [Mab P-5] was tested, and the “HUVEC adhesion to immobilized peptide” value [5] was “highest levels of adhesion”.

Mab HU177 (antibody) was tested, and the basal migration of SKOV-3 cells and fibroblasts on denatured collagen [6] was 35 to 38%, the decrease in SKOV-3 cell adhesion to denatured collagen [6] was 40% and the decrease in fibroblast adhesion to denatured collagen [6] was 50%. For the same molecule, the percent inhibition of α2β1 binding to denatured collagen [7] was 30% and the percent inhibition of α10β1 binding to denatured collagen [8] was 60%.

For `CC(C)(C)n1nc(-c2ccc(Cl)cc2)c2c(N)ncnc21` [Src inhibitor, PP2, reference compound], the “P38MAPK phosphorylation following binding to collagen peptide P-2” value (P38MAPK) was “reduced”, the “β3 phosphorylation following binding to collagen peptide P-2” value (β3-integrin) was “reduced” and the “reduction of nuclear YAP accumulation following P-2 stimulation” value (YAP) was “approximately 50%”.

`Oc1ccc(-c2nc(-c3ccncc3)c(-c3ccc(F)cc3)[nH]2)cc1` [P38MAPK inhibitor, SB202190, reference compound] was tested, and the “effect on P-2 induced angiogenesis in vivo” value ([1]; SB202190 10 μM, FIG. 6F) was “reduced” and the “reduction of nuclear YAP accumulation following P-2 stimulation” value (YAP) was “approximately 50%”.

B1: Synthetic collagen RGD containing peptide P-2 (CQGPRGDKGEC) (peptide)
peptide: CQGPRGDKGEC
For B1, the “Src phosphorylation in endothelial cells attached to the peptide (Western blot)” value [9] was ~2 fold and the “β3-integrin phosphorylation in endothelial cells attached to the peptide (Western blot)” value [9] was > 3 fold.
